# Assay results published in patent publication US20260034112A1, “MULTI-CYCLIC IRAK1 AND IRAK4 INHIBITING COMPOUNDS AND USES THEREOF” (CHILDREN'S HOSPITAL MEDICAL CENTER, priority 2022, published 2026).
# Test system: THP1 cells
# Type: cell-based, human
smiles,measurement,setting,value
"Cc1cc(-c2nc(C(=O)Nc3cc4oc(N5CCOCC5)nc4nc3N3CC[C@@H](O)C3)co2)ccn1 [CA-4948, emavusertib]",Log(FC) of gene KCNH2,,−0.6125
same,Log(FC) of gene ABCC2,CA-4948 vs DMSO in THP1 cells,0.6855
same,Log(FC) of gene AC016629.8,CA-4948 vs DMSO in THP1 cells,0.586
same,Log(FC) of gene AC093391.2,CA-4948 vs DMSO in THP1 cells,0.7835
same,Log(FC) of gene ADAM8,CA-4948 vs DMSO in THP1 cells,0.6886
same,Log(FC) of gene ADAM19,CA-4948 vs DMSO in THP1 cells,0.5984
same,Log(FC) of gene ADCY4,CA-4948 vs DMSO in THP1 cells,1.023
same,Log(FC) of gene AMH,CA-4948 vs DMSO in THP1 cells,0.7789
same,Log(FC) of gene ANKFN1,CA-4948 vs DMSO in THP1 cells,0.6129
same,Log(FC) of gene ANKRD34A,CA-4948 vs DMSO in THP1 cells,0.9288
same,Log(FC) of gene AP3B2,CA-4948 vs DMSO in THP1 cells,0.7192
same,Log(FC) of gene AP000330.8,CA-4948 vs DMSO in THP1 cells,0.7147
same,Log(FC) of gene APOE,CA-4948 vs DMSO in THP1 cells,0.6335
same,Log(FC) of gene APOLD1,CA-4948 vs DMSO in THP1 cells,0.7365
same,Log(FC) of gene ARID3C,CA-4948 vs DMSO in THP1 cells,0.8751
same,Log(FC) of gene ARL17B,CA-4948 vs DMSO in THP1 cells,0.6318
same,Log(FC) of gene ARTN,CA-4948 vs DMSO in THP1 cells,0.6881
same,Log(FC) of gene ASIC3,CA-4948 vs DMSO in THP1 cells,1.28
same,Log(FC) of gene ATP2B3,CA-4948 vs DMSO in THP1 cells,0.7931
same,Log(FC) of gene AURKB,CA-4948 vs DMSO in THP1 cells,0.6324
same,Log(FC) of gene BRICD5,CA-4948 vs DMSO in THP1 cells,0.6636
same,Log(FC) of gene BTBD19,CA-4948 vs DMSO in THP1 cells,0.6939
same,Log(FC) of gene BVES-AS1,CA-4948 vs DMSO in THP1 cells,0.5945
same,Log(FC) of gene BZRAP1,CA-4948 vs DMSO in THP1 cells,1.334
same,Log(FC) of gene C1orf51,CA-4948 vs DMSO in THP1 cells,1.033
same,Log(FC) of gene C2orf48,CA-4948 vs DMSO in THP1 cells,0.606
same,Log(FC) of gene C5orf56,CA-4948 vs DMSO in THP1 cells,0.7488
same,Log(FC) of gene C9orf37,CA-4948 vs DMSO in THP1 cells,0.6108
same,Log(FC) of gene C15orf62,CA-4948 vs DMSO in THP1 cells,0.8673
same,Log(FC) of gene C16orf86,CA-4948 vs DMSO in THP1 cells,0.6351
same,Log(FC) of gene CACTIN-AS1,CA-4948 vs DMSO in THP1 cells,0.7321
same,Log(FC) of gene CATSPER3,CA-4948 vs DMSO in THP1 cells,0.6152
same,Log(FC) of gene CCDC103,CA-4948 vs DMSO in THP1 cells,−0.6115
same,Log(FC) of gene CCDC109B,CA-4948 vs DMSO in THP1 cells,0.8991
same,Log(FC) of gene CCDC154,CA-4948 vs DMSO in THP1 cells,0.7952
same,Log(FC) of gene CCDC155,CA-4948 vs DMSO in THP1 cells,0.6645
same,Log(FC) of gene CCDC183,CA-4948 vs DMSO in THP1 cells,0.9658
same,Log(FC) of gene CD101,CA-4948 vs DMSO in THP1 cells,0.5897
same,Log(FC) of gene CD163,CA-4948 vs DMSO in THP1 cells,−0.5952
same,Log(FC) of gene CD302,CA-4948 vs DMSO in THP1 cells,0.6021
same,Log(FC) of gene CDC42EP2,CA-4948 vs DMSO in THP1 cells,0.6518
same,Log(FC) of gene CEACAM19,CA-4948 vs DMSO in THP1 cells,1.259
same,Log(FC) of gene CGN,CA-4948 vs DMSO in THP1 cells,0.9021
same,Log(FC) of gene CHN2,CA-4948 vs DMSO in THP1 cells,0.8531
same,Log(FC) of gene CHRFAM7A,CA-4948 vs DMSO in THP1 cells,−0.9429
same,Log(FC) of gene CILP2,CA-4948 vs DMSO in THP1 cells,0.8989
same,Log(FC) of gene CLDN15,CA-4948 vs DMSO in THP1 cells,0.6387
same,Log(FC) of gene CLEC10A,CA-4948 vs DMSO in THP1 cells,0.6157
same,Log(FC) of gene CLEC12B,CA-4948 vs DMSO in THP1 cells,0.7555
same,Log(FC) of gene CLK1,CA-4948 vs DMSO in THP1 cells,1.08
same,Log(FC) of gene CLK3,CA-4948 vs DMSO in THP1 cells,0.9323
same,Log(FC) of gene CLK4,CA-4948 vs DMSO in THP1 cells,0.8127
same,Log(FC) of gene CMTM1,CA-4948 vs DMSO in THP1 cells,1.158
same,Log(FC) of gene CNIH2,CA-4948 vs DMSO in THP1 cells,0.9526
same,Log(FC) of gene CNKSR1,CA-4948 vs DMSO in THP1 cells,0.9226
same,Log(FC) of gene COL7A1,CA-4948 vs DMSO in THP1 cells,1.605
same,Log(FC) of gene CPNE5,CA-4948 vs DMSO in THP1 cells,0.7008
same,Log(FC) of gene CPT1B,CA-4948 vs DMSO in THP1 cells,1.318
same,Log(FC) of gene CRABP2,CA-4948 vs DMSO in THP1 cells,3.095
same,Log(FC) of gene CTRL,CA-4948 vs DMSO in THP1 cells,1.027
same,Log(FC) of gene DCAF4L1,CA-4948 vs DMSO in THP1 cells,1.097
same,Log(FC) of gene DCAKD,CA-4948 vs DMSO in THP1 cells,0.6901
same,Log(FC) of gene DCST2,CA-4948 vs DMSO in THP1 cells,1.278
same,Log(FC) of gene DDB2,CA-4948 vs DMSO in THP1 cells,0.5883
same,Log(FC) of gene DEGS2,CA-4948 vs DMSO in THP1 cells,0.6503
same,Log(FC) of gene DMPK,CA-4948 vs DMSO in THP1 cells,0.6345
same,Log(FC) of gene DNAH1,CA-4948 vs DMSO in THP1 cells,0.6015
same,Log(FC) of gene DNAJC27-AS1,CA-4948 vs DMSO in THP1 cells,0.6304
same,Log(FC) of gene DNASE1L2,CA-4948 vs DMSO in THP1 cells,1.008
same,Log(FC) of gene DND1,CA-4948 vs DMSO in THP1 cells,1.389
same,Log(FC) of gene DNHD1,CA-4948 vs DMSO in THP1 cells,1.083
same,Log(FC) of gene DRP2,CA-4948 vs DMSO in THP1 cells,0.9019
same,Log(FC) of gene EFCAB12,CA-4948 vs DMSO in THP1 cells,1.697
same,Log(FC) of gene EGFR,CA-4948 vs DMSO in THP1 cells,0.882
same,Log(FC) of gene EIF3CL,CA-4948 vs DMSO in THP1 cells,0.7466
same,Log(FC) of gene ELMO3,CA-4948 vs DMSO in THP1 cells,0.7963
same,Log(FC) of gene ENHO,CA-4948 vs DMSO in THP1 cells,0.7452
